Data reported in PubChem BioAssay (NCI).
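How tested: cells in 96-well plates exposed to compound for 48 hours at five concentrations. Abbreviation: GI50, concentration required for 50% inhibition of growth. TGI: total growth inhibition.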

Assays:
Test in all cases: DTP human tumour cell line panel, 48 h
NCI/ADR-RES ovarian = system: NCI/ADR-RES ovarian
786-0 renal = system: 786-0 renal
SN12C renal = system: SN12C renal
SF-295 CNS = system: SF-295 CNS
NCI-H23 lung = system: NCI-H23 lung
SNB-75 CNS = system: SNB-75 CNS
MOLT-4 leukemia = system: MOLT-4 leukemia
SK-MEL-5 melanoma = system: SK-MEL-5 melanoma
MCF7 breast = system: MCF7 breast
M14 melanoma = system: M14 melanoma
NCI-H522 lung = system: NCI-H522 lung
RPMI-8226 leukemia = system: RPMI-8226 leukemia
KM12 colon = system: KM12 colon
U251 CNS = system: U251 CNS
HL-60(TB) leukemia = system: HL-60(TB) leukemia
HT29 colon = system: HT29 colon
HOP-62 NSCLC = system: HOP-62 NSCLC
IGROV1 ovarian = system: IGROV1 ovarian
PC-3 prostate = system: PC-3 prostate
SK-OV-3 ovarian = system: SK-OV-3 ovarian
A498 renal = system: A498 renal
DU-145 prostate = system: DU-145 prostate
T-47D breast = system: T-47D breast
HCT-116 colon = system: HCT-116 colon
RXF 393 renal = system: RXF 393 renal
HCT-15 colon = system: HCT-15 colon
NCI-H226 lung = system: NCI-H226 lung
COLO 205 colon = system: COLO 205 colon
SNB-19 CNS = system: SNB-19 CNS
SR leukemia = system: SR leukemia
CAKI-1 renal = system: CAKI-1 renal
MDA-MB-435 = system: MDA-MB-435
NCI-H460 lung = system: NCI-H460 lung
SF-268 CNS = system: SF-268 CNS
OVCAR-8 ovarian = system: OVCAR-8 ovarian
OVCAR-4 ovarian = system: OVCAR-4 ovarian
BT-549 breast = system: BT-549 breast
TK-10 renal = system: TK-10 renal
CCRF-CEM leukemia = system: CCRF-CEM leukemia
EKVX NSCLC = system: EKVX NSCLC
UACC-62 melanoma = system: UACC-62 melanoma
LOX IMVI melanoma = system: LOX IMVI melanoma
OVCAR-3 ovarian = system: OVCAR-3 ovarian
OVCAR-5 ovarian = system: OVCAR-5 ovarian
HOP-92 NSCLC = system: HOP-92 NSCLC
SW-620 colon = system: SW-620 colon
HCC-2998 colon = system: HCC-2998 colon
SF-539 CNS = system: SF-539 CNS
A549 NSCLC = system: A549 NSCLC
SK-MEL-28 melanoma = system: SK-MEL-28 melanoma
SK-MEL-2 melanoma = system: SK-MEL-2 melanoma
ACHN renal = system: ACHN renal
MDA-MB-468 breast = system: MDA-MB-468 breast
HS 578T breast = system: HS 578T breast
K-562 leukemia = system: K-562 leukemia
MDA-MB-231 breast = system: MDA-MB-231 breast
MALME-3M melanoma = system: MALME-3M melanoma
UO-31 renal = system: UO-31 renal
UACC-257 melanoma = system: UACC-257 melanoma

## COc1cc2nc(SCc3ccccc3)n(-c3ccc(Cl)cc3)c(=O)c2cc1OC
NCI/ADR-RES ovarian
  GI50: 6.25 µM
  TGI: 22.7 µM
786-0 renal
  GI50: 3.84 µM
  TGI: 15.6 µM
SN12C renal
  GI50: 11.5 µM
  TGI: 75.8 µM
SF-295 CNS
  GI50: 4.36 µM
  TGI: 17.8 µM
NCI-H23 lung
  GI50: 11.2 µM
  TGI: 30.7 µM
SNB-75 CNS
  GI50: 2.27 µM
  TGI: 7.86 µM
MOLT-4 leukemia
  GI50: 25.2 µM
  TGI: > 100 µM
SK-MEL-5 melanoma
  GI50: 47.9 µM
  TGI: > 100 µM
MCF7 breast
  GI50: 14.5 µM
  TGI: > 100 µM
M14 melanoma
  GI50: 42.7 µM
  TGI: > 100 µM
NCI-H522 lung
  GI50: 18.9 µM
  TGI: 88.2 µM
RPMI-8226 leukemia
  GI50: 66.1 µM
  TGI: > 100 µM
KM12 colon
  GI50: > 100 µM
  TGI: > 100 µM
U251 CNS
  GI50: 8.14 µM
  TGI: 31.8 µM
HL-60(TB) leukemia
  GI50: > 100 µM
  TGI: > 100 µM
HT29 colon
  GI50: 40.4 µM
  TGI: > 100 µM
HOP-62 NSCLC
  GI50: 4.65 µM
  TGI: 18.4 µM
IGROV1 ovarian
  GI50: 20.8 µM
  TGI: 80.4 µM
PC-3 prostate
  GI50: 16.1 µM
  TGI: > 100 µM
SK-OV-3 ovarian
  GI50: 16.6 µM
  TGI: 53 µM
A498 renal
  GI50: 19.6 µM
  TGI: 45.2 µM
DU-145 prostate
  GI50: 22.3 µM
  TGI: 98.1 µM
T-47D breast
  GI50: 28.1 µM
  TGI: > 100 µM
HCT-116 colon
  GI50: 5.09 µM
  TGI: 23.4 µM
RXF 393 renal
  GI50: 4.99 µM
  TGI: 27.8 µM
HCT-15 colon
  GI50: 19 µM
  TGI: > 100 µM
NCI-H226 lung
  GI50: 3.55 µM
  TGI: 22.7 µM
COLO 205 colon
  GI50: 29.4 µM
  TGI: > 100 µM
SNB-19 CNS
  GI50: 12.6 µM
  TGI: 36 µM
SR leukemia
  GI50: 16.5 µM
  TGI: > 100 µM
CAKI-1 renal
  GI50: 3.34 µM
  TGI: 13.7 µM
MDA-MB-435
  GI50: 64.1 µM
  TGI: > 100 µM
NCI-H460 lung
  GI50: 8.29 µM
  TGI: 33.2 µM
SF-268 CNS
  GI50: 10.3 µM
  TGI: 44.4 µM
OVCAR-8 ovarian
  GI50: 17.5 µM
  TGI: 66.6 µM
OVCAR-4 ovarian
  GI50: 3.54 µM
  TGI: 16.9 µM
BT-549 breast
  GI50: 22 µM
  TGI: 82.4 µM
TK-10 renal
  GI50: 20.3 µM
  TGI: 44.9 µM
CCRF-CEM leukemia
  GI50: 38.1 µM
  TGI: > 100 µM
EKVX NSCLC
  GI50: 16.6 µM
  TGI: 50.5 µM
UACC-62 melanoma
  GI50: 42.8 µM
  TGI: > 100 µM
LOX IMVI melanoma
  GI50: 5.77 µM
  TGI: 18.9 µM
OVCAR-3 ovarian
  GI50: 15.8 µM
  TGI: 44.5 µM
OVCAR-5 ovarian
  GI50: 31 µM
  TGI: > 100 µM
HOP-92 NSCLC
  GI50: 16.1 µM
  TGI: 49 µM
SW-620 colon
  GI50: 20.1 µM
  TGI: > 100 µM
HCC-2998 colon
  GI50: 22.5 µM
  TGI: > 100 µM
SF-539 CNS
  GI50: 7.07 µM
  TGI: 20.1 µM
A549 NSCLC
  GI50: 8.69 µM
  TGI: 29.6 µM
SK-MEL-28 melanoma
  GI50: 21.8 µM
  TGI: > 100 µM
SK-MEL-2 melanoma
  GI50: 36.8 µM
  TGI: > 100 µM
ACHN renal
  GI50: 4.69 µM
  TGI: 19 µM
MDA-MB-468 breast
  GI50: 7.61 µM
  TGI: 45.6 µM
HS 578T breast
  GI50: 6.63 µM
  TGI: 48.6 µM
K-562 leukemia
  GI50: 12 µM
  TGI: 35.6 µM
MDA-MB-231 breast
  GI50: 16.7 µM
  TGI: 79.1 µM
MALME-3M melanoma
  GI50: 19.1 µM
  TGI: 68.5 µM
UO-31 renal
  GI50: 13.9 µM
  TGI: 51.7 µM
UACC-257 melanoma
  GI50: 39.2 µM
  TGI: > 100 µM
